Here are results for 13 molecules from patent US12070455B2, “Thienopyrrole compounds” (Gilead Sciences, Inc., priority 2021, dated 2024).

Experiment [1] has as its target T1, TLR8 (Homo sapiens, UniProt Q9NR97).
T1 construct: Human peripheral blood mononuclear cells (PBMCs) consist of lymphocytes, monocytes and dendritic cells that express TLR7, TLR8 and TLR9; endogenous in cells; host or cells: cryopreserved human PBMCs from healthy donors
T1 sequence (Q9NR97 27-1041): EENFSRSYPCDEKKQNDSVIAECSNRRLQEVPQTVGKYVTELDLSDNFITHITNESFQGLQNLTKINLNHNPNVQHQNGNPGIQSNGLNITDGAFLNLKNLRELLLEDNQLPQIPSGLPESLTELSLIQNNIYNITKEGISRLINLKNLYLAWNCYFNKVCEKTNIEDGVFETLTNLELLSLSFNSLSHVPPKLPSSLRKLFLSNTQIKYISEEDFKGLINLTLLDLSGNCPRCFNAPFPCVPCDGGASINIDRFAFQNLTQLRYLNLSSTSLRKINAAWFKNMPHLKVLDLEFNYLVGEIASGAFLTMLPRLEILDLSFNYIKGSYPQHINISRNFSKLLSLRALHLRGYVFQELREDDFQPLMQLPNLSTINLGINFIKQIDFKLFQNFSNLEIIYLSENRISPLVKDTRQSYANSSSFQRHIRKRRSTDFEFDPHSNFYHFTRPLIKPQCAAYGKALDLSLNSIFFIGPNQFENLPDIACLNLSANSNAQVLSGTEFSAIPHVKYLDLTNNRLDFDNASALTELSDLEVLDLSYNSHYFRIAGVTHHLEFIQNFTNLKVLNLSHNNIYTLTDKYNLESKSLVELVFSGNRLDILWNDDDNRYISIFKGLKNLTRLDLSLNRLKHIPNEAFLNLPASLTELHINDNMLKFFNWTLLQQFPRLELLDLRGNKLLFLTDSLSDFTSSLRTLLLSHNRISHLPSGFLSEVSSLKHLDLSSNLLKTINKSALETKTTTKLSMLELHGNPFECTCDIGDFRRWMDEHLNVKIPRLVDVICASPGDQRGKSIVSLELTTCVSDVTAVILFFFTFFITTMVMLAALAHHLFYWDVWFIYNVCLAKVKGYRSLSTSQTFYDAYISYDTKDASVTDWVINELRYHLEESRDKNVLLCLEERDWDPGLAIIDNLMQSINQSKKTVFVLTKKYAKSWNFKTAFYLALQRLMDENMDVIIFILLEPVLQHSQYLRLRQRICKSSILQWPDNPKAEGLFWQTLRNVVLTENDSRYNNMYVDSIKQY
The experiment is described as follows: TLR8 human peripheral blood mononuclear cell (PBMC) cell-based assay. Conditions: human PBMCs; 1 h with antagonist, then TLR8 agonist Compound A 800 nM for 6 h; cytokines (TNFa and IL12p40) in supernatant; read-out: TLR-8 EC50. Here is the method:
TLR8 Human Peripheral Blood Mononuclear Cell (PBMC) Cell-Based Assay
Cryopreserved human PBMCs from healthy donors were thawed and resuspended in RPMI-1640 media with L-glutamine (Corning) supplemented with 10% Fetal Bovine Serum (Hyclone) and 1× Penicillin-Streptomycin (Corning). After counting, the cell density was adjusted to 2 million cells/ml and incubated for 1 hour at 37° C., 5% CO2 for recovery. Following the recovery, the cells were plated by adding 50 μl per well (100,000 cells) to 384-well cell culture plates (Greiner) containing 250 nl of test antagonists in 100% DMSO per well, in a 10 points dose response in quadruplicates. PBMCs were incubated in the presence of antagonists for one hour at 37° C., 5% CO2 before being stimulated with TLR8 agonist. Compound A (Gilead Sciences, U.S. Pat. No. 10,285,990) was used as the TLR8 agonist at a final concentration of 800 nM. PBMCs were incubated in the presence of antagonist and the TLR8 agonist for an additional 6 hours at 37° C., 5% CO2. At the end of the incubation, the cell culture plates were centrifuged at 500 g for 5 min, and the cell culture supernatant was collected. The level of cytokines (TNFa and IL12p40) in the supernatant was measured by electrochemiluminescence immunoassays (Mesoscale Discovery) following manufacturer's recommended protocols. The level of cytokine measured was plotted against the antagonist concentration and fitted to a sigmoidal function to determine the EC50, which are shown below in Table 6.

In experiment [2] the target is T2, TLR7 (Homo sapiens, UniProt Q9NYK1).
T2 construct: Human peripheral blood mononuclear cells (PBMCs) consist of lymphocytes, monocytes and dendritic cells that express TLR7, TLR8 and TLR9; endogenous in cells; host or cells: cryopreserved human PBMCs from healthy donors
T2 sequence (Q9NYK1 27-1049): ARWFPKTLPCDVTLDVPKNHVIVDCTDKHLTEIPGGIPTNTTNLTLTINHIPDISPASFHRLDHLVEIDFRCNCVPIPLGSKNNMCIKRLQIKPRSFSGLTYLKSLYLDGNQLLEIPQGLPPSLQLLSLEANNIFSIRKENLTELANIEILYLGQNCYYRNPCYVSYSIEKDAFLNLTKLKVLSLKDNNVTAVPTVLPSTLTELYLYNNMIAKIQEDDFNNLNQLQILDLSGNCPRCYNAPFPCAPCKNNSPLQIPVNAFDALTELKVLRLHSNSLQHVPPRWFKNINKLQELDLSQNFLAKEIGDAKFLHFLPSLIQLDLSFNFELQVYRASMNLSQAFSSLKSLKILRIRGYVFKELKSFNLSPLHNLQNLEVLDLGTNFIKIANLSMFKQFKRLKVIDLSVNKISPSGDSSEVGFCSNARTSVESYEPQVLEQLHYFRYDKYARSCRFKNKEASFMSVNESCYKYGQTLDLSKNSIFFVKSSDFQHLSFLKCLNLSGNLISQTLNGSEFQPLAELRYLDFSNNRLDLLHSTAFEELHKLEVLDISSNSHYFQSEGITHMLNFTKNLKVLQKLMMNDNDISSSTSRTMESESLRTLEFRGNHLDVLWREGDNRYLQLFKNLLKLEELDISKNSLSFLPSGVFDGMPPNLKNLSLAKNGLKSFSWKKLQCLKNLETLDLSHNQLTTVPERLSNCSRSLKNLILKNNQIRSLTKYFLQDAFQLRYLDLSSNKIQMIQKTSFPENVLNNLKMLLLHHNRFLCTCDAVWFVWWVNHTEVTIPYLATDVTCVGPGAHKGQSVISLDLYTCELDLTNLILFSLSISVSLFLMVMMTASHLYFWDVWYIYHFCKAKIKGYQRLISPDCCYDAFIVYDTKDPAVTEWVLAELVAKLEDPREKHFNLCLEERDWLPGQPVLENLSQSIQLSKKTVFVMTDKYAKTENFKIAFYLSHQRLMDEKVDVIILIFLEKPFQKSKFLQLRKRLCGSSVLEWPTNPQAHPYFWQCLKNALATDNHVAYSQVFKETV
In words: TLR7 human peripheral blood mononuclear cell (PBMC) cell-based assay. To be noted: human PBMCs; 1 h with test antagonist, then TLR7 agonist GS-986 400 nM for 6 h; cytokines (IL-6 and IFNα) in supernatant; read-out: TLR-7 EC50. The source says:
TLR7/9 Human Peripheral Blood Mononuclear Cell (PBMC) Cell-Based Assay
Human peripheral blood mononuclear cells (PBMCs) consist of lymphocytes, monocytes and dendritic cells that express TLR7, TLR8 and TLR9. These cells respond to TLR7, TLR8 and TLR9 ligand stimulation and produce cytokines and chemokines in vitro and in vivo. Human PBMCs are therefore suitable to be used in a cell-based assay to assess the in vitro potency of a TLR 7, 8, and/or 9 antagonist.
Cryopreserved human PBMCs from healthy donors were thawed and resuspended in RPMI-1640 media with L-glutamine (Corning) supplemented with 10% Fetal Bovine Serum (Hyclone) and 1× Penicillin-Streptomycin (Corning). After counting, the cell density was adjusted to 2 million cells/ml and incubated for 1 hour at 37° C., 5% CO2 for recovery. Following the recovery, the cells were plated by adding 50 μl per well (100,000 cells) to 384-well cell culture plates (Greiner) containing 250 nl of test antagonists in 100% DMSO per well, in a 10 points dose response in quadruplicates. PBMCs were incubated in the presence of test antagonists for one hour at 37° C., 5% CO2 before being stimulated with a TLR7 or TLR9 agonist. GS-986 (Gilead Sciences) was used as the TLR7 agonist at a final concentration of 400 nM. ODN-2216 (InvivoGen) was used as the TLR9 agonist at a final concentration of 3 μM. PBMCs were incubated in the presence of the test antagonist and the TLR7 (or TLR9) agonist for an additional 6 hours at 37° C., 5% CO2. At the end of the incubation, the cell culture plates were centrifuged at 500 g for 5 min, and the cell culture supernatant was collected. The level of cytokines (IL-6 and IFNα) in the supernatant was measured by electrochemiluminescence immunoassays (Mesoscale Discovery) following manufacturer's recommended protocols. The level of cytokine measured was plotted against the test antagonist concentration and fitted to a sigmoidal function to determine the EC50, which are shown below in Table 6.

pEC50: −log10 of the molar value.

Take `Cc1c(C2CCN(C(=O)[C@@H]3C[C@H](C(F)(F)F)CN3)CC2)sc2[nH]c(-c3cn4ncnc4c4c3CCC4)c(C(C)C)c12` [Example 39]: the results for the pEC50 in experiment [1] and in experiment [2] were 8.30 and 8.47, respectively.
As for `CC(C)c1c(-c2cn3ncnc3c3c2CCC3)[nH]c2sc(C(=O)N(C)C3CCNCC3)cc12` [Example 41, 5-(8,9-dihydro-7H-cyclopenta[c][1,2,4]triazolo[1,5-a]pyridin-6-yl)-4-isopropyl-N-methyl-N-(piperidin-4-yl)-6H-thieno[2,3-b]pyrrole-2-carboxamide], the pEC50 (commonly the negative decadic logarithm of the EC50, by convention in mol/L) in experiment [1] is 8.59; in experiment [2], 9.31.
For the molecule `CC(C)c1c(-c2cn3ncnc3c3c2CCC3)[nH]c2sc(C(=O)N3CCNCC3)cc12` [Example 42], the pEC50 was 9.16 in experiment [1] and 9.11 in experiment [2].
Taken in the same sequence, the figures for `Cc1nc2c3c(c(-c4[nH]c5sc([C@@H]6C[C@@H]7C[C@H]6CN7CC(N)=O)c(C)c5c4C(C)C)cn2n1)COC3` [Example 43, 2-((1S,4R,5R)-5-(4-isopropyl-3-methyl-5-(2-methyl-7,9-dihydrofuro[3,4-c][1,2,4]triazolo[1,5-a]pyridin-6-yl)-6H-thieno[2,3-b]pyrrol-2-yl)-2-azabicyclo[2.2.1]heptan-2-yl)acetamide] were 8.69 and 8.96.
Taken in the same sequence, the figures for `Cc1nc2c3c(c(-c4[nH]c5sc(C6CCN(CC(N)=O)CC6)c(C)c5c4C(C)C)cn2n1)COC3` [Example 44] were 6.87 and 8.39.
For `Cc1c(C2CCN(CC(N)=O)CC2)sc2[nH]c(-c3cn4ncnc4c4c3COC4)c(C(C)C)c12` [Example 45] the same measures were 7.20 and 8.40.
For `Cc1nc2c3c(c(-c4[nH]c5sc([C@@H]6C[C@H]7CC[C@@H](C6)N7CC(N)=O)c(C)c5c4C(C)C)cn2n1)COC3` [Example 46], the values for the negative-log EC50 (pEC50) in experiment [1] and in experiment [2] were 7.11 and 8.92, respectively.
Taken in the same sequence, the figures for `Cc1c([C@@H]2C[C@@H]3C[C@H]2CN3CC(N)=O)sc2[nH]c(-c3cn4ncnc4c4c3COC4)c(C(C)C)c12` [Example 48] were 9.44 and 9.41.
Taken in the same sequence, the figures for `Cc1c([C@@H]2C[C@H]3CC[C@@H](C2)N3CC(N)=O)sc2[nH]c(-c3cn4ncnc4c4c3COC4)c(C(C)C)c12` [Example 49] were 7.82 and 9.39.
For `Cc1nc2c3c(c(-c4[nH]c5sc(C6CCN(CC(N)=O)CC6)c(C)c5c4C(C)C)cn2n1)CCC3` [Example 50] the same measures were 7.46 and 9.11.
Consider `Cc1nc2c3c(c(-c4[nH]c5sc(C6CCN(C(=O)[C@H]7COCCN7)CC6)c(C)c5c4C(C)C)cn2n1)COC3` [Example 51, (R)-(4-(4-isopropyl-3-methyl-5-(2-methyl-7,9-dihydrofuro[3,4-c][1,2,4]triazolo[1,5-a]pyridin-6-yl)-6H-thieno[2,3-b]pyrrol-2-yl)piperidin-1-yl)(morpholin-3-yl)methanone], for which the pEC50 in experiment [1] is 7.02; in experiment [2], 8.61.
Taken in the same sequence, the figures for `Cc1c(C2CCN(C(=O)[C@H]3COCCN3)CC2)sc2[nH]c(-c3cn4ncnc4c4c3COC4)c(C(C)C)c12` [Example 52] were 7.57 and 8.93.
For `Cc1nc2c3c(c(-c4[nH]c5sc(C6CCN(C(=O)[C@H]7COCCN7)CC6)c(C)c5c4C(C)C)cn2n1)CCC3` [Example 53] the same measures were 7.79 and 9.21.
